In ChEMBL document CHEMBL5620345, “Metal binding pharmacophore click-derived discovery of new broad-spectrum metallo-β-lactamase inhibitors” (Eur J Med Chem, 2023):

What was measured:
Escherichia coli [1] = assay: Antibacterial activity against Escherichia coli BAA2452 expressing blaNDM-1 clinical isolates assessed as fold potentiation incubated for 16 to 18 hrs by broth microdilution method; format: functional; settings: time 16-18 hrs; also: test concentration or dose not given here
Escherichia coli [2] = assay: Antibacterial activity against Escherichia coli C1580 expressing blaIMP-1 clinical isolates assessed as meropenem MIC incubated for 16 to 18 hrs by broth microdilution method; format: functional; settings: time 16-18 hrs; also: test concentration or dose not given here
[3] = Inhibition of recombinant his tagged IMP1 (unknown origin) expressed in Escherichia coli (DE3) cells using FC5 as substrate by microplate reader assay
Enterobacterales [4] = assay: Antibacterial activity against Carbapenem-Resistant Enterobacterales 19 expressing blaNDM-1 clinical isolates assessed as fold potentiation incubated for 16 to 18 hrs by broth microdilution method; format: functional; settings: time 16-18 hrs; also: test concentration or dose not given here
Enterobacterales [5] = assay: Antibacterial activity against Carbapenem-Resistant Enterobacterales 19 expressing blaNDM-1 clinical isolates assessed as meropenem MIC incubated for 16 to 18 hrs by broth microdilution method; format: functional; settings: time 16-18 hrs; also: test concentration or dose not given here
Escherichia coli [6] = assay: Antibacterial activity against Escherichia coli BAA2452 expressing blaNDM-1 clinical isolates assessed as meropenem MIC incubated for 16 to 18 hrs by broth microdilution method; format: functional; settings: time 16-18 hrs; also: test concentration or dose not given here
[7] = Inhibition of recombinant his tagged VIM-2 (unknown origin) expressed in Escherichia coli (DE3) cells using FC5 as substrate by microplate reader assay
Escherichia coli [8] = assay: Antibacterial activity against Escherichia coli C1580 expressing blaIMP-1 clinical isolates assessed as fold potentiation incubated for 16 to 18 hrs by broth microdilution method; format: functional; settings: time 16-18 hrs; also: test concentration or dose not given here
Klebsiella pneumoniae [9] = assay: Antibacterial activity against Klebsiella pneumoniae BAA2470 expressing blaNDM-1 clinical isolates assessed as fold potentiation incubated for 16 to 18 hrs by broth microdilution method; format: functional; settings: time 16-18 hrs; also: test concentration or dose not given here
[10] = Inhibition of recombinant VIM-1 (unknown origin) expressed in Escherichia coli (DE3) cells using FC5 as substrate by microplate reader assay
[11] = Inhibition of recombinant VIM-5 (unknown origin) expressed in Escherichia coli (DE3) cells using FC5 as substrate by microplate reader assay
Klebsiella pneumoniae [12] = assay: Antibacterial activity against Klebsiella pneumoniae BAA2470 expressing blaNDM-1 clinical isolates assessed as meropenem MIC incubated for 16 to 18 hrs by broth microdilution method; format: functional; settings: time 16-18 hrs; also: test concentration or dose not given here
[13] = Inhibition of recombinant NDM1 (unknown origin) expressed in Escherichia coli (DE3) cells using FC5 as substrate by microplate reader assay
Escherichia coli [14] = assay: Antibacterial activity against Escherichia coli C1541 expressing blaVIM-2 clinical isolates assessed as meropenem MIC incubated for 16 to 18 hrs by broth microdilution method; format: functional; settings: time 16-18 hrs; also: test concentration or dose not given here
Escherichia coli [15] = assay: Antibacterial activity against Escherichia coli C1541 expressing blaVIM-2 clinical isolates assessed as fold potentiation incubated for 16 to 18 hrs by broth microdilution method; format: functional; settings: time 16-18 hrs; also: test concentration or dose not given here

| Compound | fold change (FC) (Escherichia coli [1]) | MIC (Escherichia coli [2]) [µg/mL] | IC50 [3] [nM] | fold change (FC) (Enterobacterales [4]) | MIC (Enterobacterales [5]) [µg/mL] | MIC (Escherichia coli [6]) [µg/mL] | IC50 [7] [nM] | fold change (FC) (Escherichia coli [8]) | fold change (FC) (Klebsiella pneumoniae [9]) | IC50 [10] [nM] | IC50 [11] [nM] | MIC (Klebsiella pneumoniae [12]) [µg/mL] | IC50 [13] [nM] | MIC (Escherichia coli [14]) [µg/mL] | fold change (FC) (Escherichia coli [15]) |
| --- | --- | --- | --- | --- | --- | --- | --- | --- | --- | --- | --- | --- | --- | --- | --- |
| Cc1ccc(-c2ccc(C(c3cccc(-n4cc(-c5cccc(N)c5)nn4)c3)P(=O)(O)O)cc2)cc1 (stereo unspecified) | 8 | 2 | 430 | 8 | 8 | 16 | 0.66 | 16 | >2 | 660 | 2 | 64 | 590 | – | – |
| Nc1cccc(-c2cn(-c3cccc(CP(=O)(O)O)c3)nn2)c1 | 4 | 2 | 1960 | 4 | 16 | 32 | 92 | 16 | >1 | 2210 | 19 | 128 | 7270 | 4 | 4 |
| O=P(O)(O)Cc1ccc(-n2cc(-c3cccc(Cl)c3)nn2)cc1 | – | – | > 100000 | – | – | – | 2440 | – | – | 8990 | 2030 | – | > 100000 | – | – |
| O=P(O)(O)Cc1cccc(-n2cc(-c3ccc(Br)cc3)nn2)c1 | 4 | 2 | 3280 | 4 | 16 | 32 | 76 | 16 | >1 | 11400 | 50 | 128 | 11200 | 4 | 4 |
| CCCCc1cn(-c2cccc(CP(=O)(O)O)c2)nn1 | – | – | 12300 | – | – | – | 2230 | – | – | 16500 | 1730 | – | > 100000 | – | – |
| COc1ccc(C(c2cccc(-n3cc(-c4cccc(N)c4)nn3)c2)P(=O)(O)O)cc1 (stereo unspecified) | 8 | 1 | 3250 | 8 | 8 | 16 | 52 | 32 | >2 | 1240 | 25 | 64 | 8090 | 2 | 8 |
| Cc1ccc(C(c2cccc(-n3cc(-c4cccc(N)c4)nn3)c2)P(=O)(O)O)cc1 (stereo unspecified) | 16 | 1 | 27 | 8 | 8 | 8 | 0.82 | 32 | >2 | 620 | 1 | 64 | 1070 | 1 | 16 |
| O=P(O)(O)Cc1cccc(-n2cc(CNc3ccccc3)nn2)c1 | – | – | 780 | – | – | – | 840 | – | – | 3770 | 640 | – | 2840 | – | – |
| Nc1ccccc1-c1cn(-c2cccc(CP(=O)(O)O)c2)nn1 | 4 | 2 | 6500 | 8 | 8 | 32 | 13 | 16 | >1 | 5610 | 510 | 128 | 7710 | 1 | 16 |
| CCc1ccc(C(c2cccc(-n3cc(-c4cccc(N)c4)nn3)c2)P(=O)(O)O)cc1 (stereo unspecified) | 16 | 4 | 170 | 8 | 8 | 8 | 6 | 8 | >2 | 1370 | 7 | 64 | 650 | 1 | 16 |
| Nc1cccc(-c2cn(-c3cccc(C(c4ccc(F)cc4)P(=O)(O)O)c3)nn2)c1 (stereo unspecified) | 8 | 2 | 700 | 8 | 8 | 16 | 6 | 16 | >2 | 440 | 1 | 64 | 2000 | 0.5 | 32 |
| O=[N+]([O-])c1ccc(Cn2cc(-c3cccc(B(O)O)c3)nn2)cc1 | 2 | 16 | > 100000 | 2 | 32 | 64 | 9760 | 2 | – | > 100000 | 81100 | > 128 | 48000 | 64 | – |
